Assay results as given in patent publication US4089946A, “Claudogenic-interceptive nonapeptides” (American Home Products Corporation, priority 1976, dated 1978).

What was measured:
[1] = system: Proestrous female Sprague-Dawley rats (ovulation, ova in fallopian tubes); test: Ovulation induction in Nembutal-blocked proestrous rats; type: in vivo, rat
Protocol: The ovulation-induction properties of the nonapeptides of this invention was determined with the preferred compound, [D-Trp^6,(N-methyl)Leu^7,des-Gly-NH2^10,Pro-ethylamide]LRH as follows: Proestrous female Sprague-Dawley rats were injected intraperitoneally with a hypnotic dose of Nembutal® (50 mg/kg) at 1:30 PM. Between 1:40 and 1:50 PM the rats received the test material via the jugular vein. The following morning the animals were sacraficed and the fallopian tubes examined for ova under a dissecting microscope. […] Thus, in its ovulation induction, the preferred compound of this invention is about ten times as active as its closest structural analogues.

[2] = system: Mature, female, Sprague-Dawley rats (pregnancy: uterine implantation sites and fetuses); test: Anti-gravidity (claudogenic/interceptive, post-coital) evaluation in pregnant rats; type: in vivo, rat
Description: The procedure followed in evaluating the anti-gravidity properties of the nonapeptides of this invention was as follows: Mature, female, Sprague-Dawley rats (350 + 30 grams body weight) maintained on a 14:10 light:dark schedule were caged with fertile male rats on the evening of proestrus. The presence of vaginal sperm the next morning was considered day 1 of pregnancy. The nonapeptide ethylamine produced in the following examples, representative of the entire group of compounds of this invention, was administered subcutaneously in a corn oil vehicle on days 1-7, or 7-12 of pregnancy at a rate of as low as 1 μg/rat/day. One-half the daily dose was administered at 9 A.M. and at 3 P.M. each day. The recipients of day 1-7 treatment were autopsied on day 14. The recipients of day 7-12 treatment were autopsied on day 18 of pregnancy. The effectiveness of the ethylamide and its effective dose was established by the absence of uterine implantation sites and fetuses. The presence of at least one normal fetus was considered to be the criterion for pregnancy. […]

For `CCNC(=O)[C@@H]1CCCN1C(=O)[C@H](CCCNC(=N)N)NC(=O)[C@H](CC(C)C)N(C)C(=O)[C@@H](Cc1c[nH]c2ccccc12)NC(=O)[C@H](Cc1ccc(O)cc1)NC(=O)[C@H](CO)NC(=O)[C@H](Cc1c[nH]c2ccccc12)NC(=O)[C@H](Cc1c[nH]cn1)NC(=O)[C@@H]1CCC(=O)N1` [L-pyroglutamyl-L-histidyl-L-tryptophyl-L-seryl-L-tyrosyl-D-tryptophyl-N-methyl-L-leucyl-L-arginyl-L-prolinethylamide], the “rats showing ovulation inducing activity” value ([1]; 0.1 mg per rat via the jugular vein) was 100%, the “ovulation induction activity relative to closest structural analogues” value ([1]; rat, in vivo) was “about ten” and the “effectiveness of treatment (absence of uterine implantation sites and fetuses)” value ([2]; 1 microgram per rat per day subcutaneously in corn oil, day 1-7 of pregnancy, five rat sample, autopsy day 14) was 100%. For the same compound, the “effectiveness of treatment (absence of uterine implantation sites and fetuses)” value ([2]; 10 micrograms per rat per day subcutaneously in corn oil, day 7-12 of pregnancy, autopsy day 18) was 100%.

“LRH: LRH itself, the parent hormone used as comparison for ovulation induction (QHWSYGLRPG; Gonadoliberin-1; UniProt P01148 24-33, looked up) [reference compound]” was tested, and the “dose required to obtain 100 percent ovulation” value ([1]; via the jugular vein) was “about 3 mg per rat”.
